According to patent US20210353579A1, “HIGH PENETRATION COMPOSITIONS AND USES THEREOF” (Techfields Pharma Co., Ltd., priority 2006, published 2021):
In brackets after ≈: the same amount, converted by molar mass.

How the values were obtained:
[1] = Plasma levels after transdermal administration to hairless mice; assay type: in vivo; conditions: for t, time to peak plasma level after parent compound: parent compound administered (time when taken orally); for Peak plasma concentration after parent compound: parent compound administered, hairless mice; for Peak plasma concentration of parent compound after prodrug compound / t, time to peak plasma level of parent compound after prodrug compound: mouse, in vivo
Protocol: Tested compounds (20% solution or suspension in 1 mL isopropanol) are administered transdermally to the skin of intact hairless mice. The plasma levels of the parent compounds are determined by HPLC.

human skin tissue = conditions: pH 7.4; for In vitro penetration rate (apparent flux), parent compounds: human, 20 %
[2] = Solubility in water / aqueous solubility of HPPs and parent drugs; conditions: water
mice = test: Analgesic activity, acetic acid writhing; assay type: in vivo
Protocol: The prodrug compounds are administered either transdermally or orally. The parent compounds are administered orally. The number of writhing that occurred when mice are administered the acetic acid solution are counted, and the rate of inhibition based on the control group which was not pretreated with any test compounds is calculated. […] The A group is the control group.

rats = test: Antipyretic activity, E. coli suspension as pyrogen; assay type: in vivo; conditions: in °C (unit assumed)
Protocol: Rats are administered with sterilized E. coli suspension as a pyrogen. Each group of rats are administered with a prodrug compounds or parent compounds at a dosage specified below. The prodrug compounds are administered either orally or transdermally. The parent compounds are administered orally.

rat = conditions: rats
Protocol: The acute toxicity of the prodrug compounds and parent compounds are measured by LD50 of rat.

[3] = 50 mg/kg transdermally, 60 minutes before acetic acid
[4] = 50 mg/kg transdermally, 30 min before acetic acid
[5] = 100 mg/kg transdermally, 30 min before acetic acid
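For LD50 of HPP in this document: acute toxicity in rats expressed as LD50, determined for both prodrugs and their parent compounds.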

Compound | t, time to peak plasma level after parent compound [1] | Peak plasma concentration after parent compound [1] | In vitro penetration rate (apparent flux), parent compounds (human skin tissue) | solubility [2] | other results
Cc1cc(NC(=O)C2=C(O)c3ccccc3S(=O)(=O)N2C)no1 [Isoxicam, isoxicam, reference compound] | 2 to 4 h | 0.1 mg/L | <1 μg/cm^2/h | < 100 µg/mL | 
Cc1cnc(NC(=O)C2=C(OC(=O)CCCN(C)C)c3ccccc3S(=O)(=O)N2C)s1.Cl [4-N,N-dimethylaminobutyryloxy-2-methyl-N-(5-methyl-2-thiazolyl)-2H-1,2-benzothiazine-3-carboxamide-1,1-dioxide.HCl] |  |  |  |  | Peak plasma concentration of parent compound after prodrug compound [1]: 20 mg/L; % (rate of writhing inhibition) (mice; [3]): 48%; No. of Writhing (mice; [3]): 18.2; body temperature, t = 0 min (rats; 25 mg/kg transdermally): 37.57 ± 0.07; body temperature, t = 90 min (rats; 25 mg/kg transdermally): 36.53 ± 0.08; body temperature, t = 180 min (rats; 25 mg/kg transdermally): 36.52 ± 0.08; body temperature, t = 270 min (rats; 25 mg/kg transdermally): 36.50 ± 0.07; In vitro penetration rate (apparent flux), prodrug compounds (human skin tissue): 1900 μg/cm^2/h; LD50 of HPP (rat): 590 mg/kg
CC(=O)O.CCN(CC)CCOC(=O)C(C)c1cccc(C(=O)c2ccccc2)c1 (stereo not shown) [diethylaminoethyl 2-(3-benzoylphenyl) propionate.AcOH] |  |  |  |  | Peak plasma concentration of parent compound after prodrug compound [1]: 20 mg/L; t, time to peak plasma level of parent compound after prodrug compound [1]: 40 min; % (rate of writhing inhibition) (mice; [4]): 59%; No. of Writhing (mice; [4]): 14.2; body temperature, t = 0 min (rats; 50 mg/kg transdermally): 37.28 ± 0.06; body temperature, t = 90 min (rats; 50 mg/kg transdermally): 36.65 ± 0.06; body temperature, t = 180 min (rats; 50 mg/kg transdermally): 36.58 ± 0.08; body temperature, t = 270 min (rats; 50 mg/kg transdermally): 36.60 ± 0.07; In vitro penetration rate (apparent flux), prodrug compounds (human skin tissue): 1150 μg/cm^2/h; LD50 of HPP (rat): 300 mg/kg
CC(=O)Oc1ccccc1C(=O)OCCN(C)C [dimethylaminoethyl acetylsalicylate.AcOH] |  |  |  |  | LD50 of HPP (rat): 2200 mg/kg
CN(C)CCCC(=O)OC1=C(C(=O)Nc2ccccn2)N(C)S(=O)(=O)c2cc(Cl)sc21.Cl [6-chloro-4-N,N-dimethylaminobutyryloxy-2-methyl-N-2-pyridinyl-2H-thieno[2,3-e]-1,2-thiazine-3-carboxamide 1,1-dioxide.HCl] |  |  |  |  | Peak plasma concentration of parent compound after prodrug compound [1]: 20 mg/L; % (rate of writhing inhibition) (mice; [3]): 53%; No. of Writhing (mice; [3]): 16.5; body temperature, t = 0 min (rats; 25 mg/kg transdermally): 37.55 ± 0.05; body temperature, t = 90 min (rats; 25 mg/kg transdermally): 36.66 ± 0.06; body temperature, t = 180 min (rats; 25 mg/kg transdermally): 36.60 ± 0.06; body temperature, t = 270 min (rats; 25 mg/kg transdermally): 36.61 ± 0.07; In vitro penetration rate (apparent flux), prodrug compounds (human skin tissue): 1600 μg/cm^2/h; LD50 of HPP (rat): 580 mg/kg
CC(=O)O.CC(C)Cc1ccc(C(C)C(=O)OCCN(C)C)cc1 (stereo not shown) [dimethylaminoethyl 2-(ρ-isobutylphenyl) propionate.AcOH] |  |  |  |  | LD50 of HPP (rat): 1600 mg/kg
CC(=O)O.CCN(CC)CCOC(=O)C1CCc2cc(C3CCCCC3)c(Cl)cc21 (stereo not shown) [diethylaminoethyl 6-chloro-5-cyclohexyl-2,3-dihydro-1H-indene-1-carboxylate.AcOH] |  |  |  |  | Peak plasma concentration of parent compound after prodrug compound [1]: 2000 mg/L; t, time to peak plasma level of parent compound after prodrug compound [1]: 50 min; % (rate of writhing inhibition) (mice; [5]): 57%; No. of Writhing (mice; [5]): 15.2; body temperature, t = 0 min (rats; 100 mg/kg transdermally): 37.25 ± 0.06; body temperature, t = 90 min (rats; 100 mg/kg transdermally): 36.63 ± 0.06; body temperature, t = 180 min (rats; 100 mg/kg transdermally): 36.55 ± 0.08; body temperature, t = 270 min (rats; 100 mg/kg transdermally): 36.51 ± 0.07; In vitro penetration rate (apparent flux), prodrug compounds (human skin tissue): 4000 μg/cm^2/h; LD50 of HPP (rat): 200 mg/kg
Cc1ccc2c(c1)CC(=O)c1cc(C(C)C(=O)O)ccc1O2 (stereo not shown) [Bermoprofen, bermoprofen, reference compound] | 2 to 4 h | 10 mg/L | 40 μg/cm^2/h | 100 µg/mL (≈ 337 µM) | 
CC(C(=O)O)c1ccc2c(c1)CC(=O)c1ccccc1S2 (stereo not shown) [Zaltoprofen, zaltoprofen, reference compound] | 2 to 4 h | 10 mg/L | 30 μg/cm^2/h | 100 µg/mL (≈ 335 µM) | 
CC(C(=O)O)c1ccc(N2CC=CC2)c(Cl)c1 (stereo not shown) [Pirprofen, pirprofen, reference compound] | 2 to 4 h | 10 mg/L | 30 μg/cm^2/h | 100 µg/mL (≈ 397 µM) | 
C=CCOc1ccc(CC(=O)O)cc1Cl [Alclofenac, alclofenac, reference compound] | 1 to 2 h | 0.1 mg/L | 10 μg/cm^2/h | 100 µg/mL (≈ 441 µM) | 
Cc1cnc(NC(=O)C2=C(O)c3ccccc3S(=O)(=O)N2C)s1 [Meloxicam, meloxicam, reference compound] | 2 to 4 h | 0.1 mg/L | <1 μg/cm^2/h | < 100 µg/mL | 
Cc1c(Nc2ncccc2C(=O)O)cccc1C(F)(F)F [Flunixin, flunixin, reference compound] | 2 to 4 h | 0.1 mg/L | 10 μg/cm^2/h | < 100 µg/mL | 
CC(C(=O)O)c1ccc(C(=O)c2ccccc2)s1 (stereo not shown) [Tiaprofenic acid, tiaprofenic acid, reference compound] | 2 to 4 h | 10 mg/L | 30 μg/cm^2/h | 100 µg/mL (≈ 384 µM) | 
CC(C(=O)O)c1ccc(C(=O)c2cccs2)cc1 (stereo not shown) [Suprofen, suprofen, reference compound] | 2 to 4 h | 10 mg/L | 30 μg/cm^2/h | 100 µg/mL (≈ 384 µM) | 
O=C(O)CCc1nc(-c2ccccc2)c(-c2ccccc2)o1 [Oxaprozin, oxaprozin, reference compound] | 2 to 4 h | 10 mg/L | 30 μg/cm^2/h | 100 µg/mL (≈ 341 µM) | 
CC(C(=O)O)c1ccc(CC2CCCC2=O)cc1 (stereo not shown) [Loxoprofen, loxoprofen, reference compound] | 2 to 4 h | 10 mg/L | 30 μg/cm^2/h | 100 µg/mL (≈ 406 µM) | 
Cc1ccc(Cl)c(Nc2ccccc2C(=O)O)c1Cl [Meclofenamic acid, meclofenamic acid, reference compound] | 2 to 4 h | 0.1 mg/L | 10 μg/cm^2/h | < 100 µg/mL | 
CC(C(=O)O)c1ccc(-c2ccccc2)c(F)c1 (stereo not shown) [Flurbiprofen, flurbiprofen, reference compound] | 2 to 4 h | 10 mg/L | 30 μg/cm^2/h | 200 µg/mL (≈ 819 µM) | 
O=C(c1ccccc1)c1ccc2n1CCC2C(=O)O (stereo not shown) [Ketorolac, ketorolac, reference compound] | 2 to 4 h | 10 mg/L | 30 μg/cm^2/h | 100 µg/mL (≈ 392 µM) | 
CN1C(C(=O)Nc2ccccn2)=C(O)c2sc(Cl)cc2S1(=O)=O [Lornoxicam, lornoxicam, reference compound] | 2 to 4 h | 0.1 mg/L | <1 μg/cm^2/h | < 100 µg/mL | 
